Test results as given in patent US7161032B2, “Sulfonamide derivatives, insecticides for agricultural and horticultural use, and usage thereof” (Nihon Nohyaku Co., Ltd., priority 2002, dated 2007).

Experiments:
Assay type in all cases: in vivo
[1] = system: Common Cutworm (Spodoptera litura); assay: Insecticidal effect on common cutworm (Test Example 2): cabbage leaf piece immersed in 50 ppm liquid chemical; conditions: common cutworm (Spodoptera litura) second-instar larvae, 8 days after inoculation, 25° C.
Experimental: A piece of cabbage leaf (cultivar: Shikidori) was immersed for about 30 seconds in a liquid chemical prepared by diluting a preparation containing each compound listed in Table 1 or 2 as an active ingredient to adjust the concentration to 50 ppm. After air-dryness, it was placed in a plastic Petri dish with a diameter of 9 cm and inoculated with second-instar larvae of common cutworm, after which the dish was closed and then allowed to stand in a room thermostated at 25° C. Eight days after the inoculation, the dead and alive were counted. The mortality was calculated according to the following equation and the insecticidal effect was judged according to the criterion shown in Test Example 1. The test was carried out with triplicate groups of 10 insects. [formula]

[2] = system: Smaller Tea Tortrix (Adoxophyes sp.); assay: Insecticidal effect on smaller tea tortrix (Test Example 3): tea leaves immersed in 50 ppm liquid chemical; conditions: smaller tea tortrix (Adoxophyes sp.) larvae, 8 days after inoculation, 25° C., humidity 70%
Experimental: Tea leaves were immersed for about 30 seconds in a liquid chemical prepared by diluting a preparation containing each compound listed in Table 1 or 2 as an active ingredient to adjust the concentration to 50 ppm. After air-dryness, the tea leaves were placed in a plastic Petri dish with a diameter of 9 cm and inoculated with larvae of smaller tea tortrix, after which the dish was allowed to stand in a room thermostated at 25° C. and having a humidity of 70%. Eight days after the inoculation, the dead and alive were counted and the insecticidal effect was judged according to the criterion shown in Test Example 1. The test was carried out with triplicate groups of 10 insects.

[3] = system: Diamond Back Moth (Plutella xylostella); assay: Insecticidal effect on diamond back moth (Test Example 1): egg-bearing Chinese cabbage seedling immersed in 50 ppm liquid chemical
Experimental: Adult diamond back moths were released and allowed to oviposit on a Chinese cabbage seedling. Two days after the release, the seedling having the eggs deposited thereon was immersed for about 30 seconds in a liquid chemical prepared by diluting a preparation containing each compound listed in Table 1 or 2 as an active ingredient to adjust the concentration to 50 ppm. After air-dryness, it was allowed to stand in a room thermostated at 25° C. Six days after the immersion, the hatched insects were counted. The mortality was calculated according to the following equation and the insecticidal effect was judged according to the criterion shown below. The test was carried out with triplicate groups of 10 insects. [formula]

Compound | Insecticidal effect (mortality grade), Test Example 2 [1] | Insecticidal effect (mortality grade), Test Example 3 [2] | Insecticidal effect (mortality grade), Test Example 1 [3]
Cc1cc(C(F)(C(F)(F)F)C(F)(F)F)ccc1NC(=O)c1cccc(I)c1C(=O)NC(C)CS(=O)(=O)NCC[S+](C)[O-] (stereo not drawn) [1-76] | A (Mortality 100%) | A (Mortality 100%) | A (Mortality 100%)
Cc1cc(C(F)(C(F)(F)F)C(F)(F)F)ccc1NC(=O)c1cccc(I)c1C(=O)NC(C)CS(=O)(=O)NC(C)C(N)=O (stereo not drawn) [1-103] | A (Mortality 100%) | A (Mortality 100%) | A (Mortality 100%)
CSc1ccc(NS(=O)(=O)CC(C)NC(=O)c2c(I)cccc2C(=O)Nc2ccc(C(F)(C(F)(F)F)C(F)(F)F)cc2C)cc1 (stereo not drawn) [1-112] | E (Mortality less than 50%) | E (Mortality less than 50%) | A (Mortality 100%)
CCNS(=O)(=O)CC(C)(C)NC(=O)c1c(I)cccc1C(=O)Nc1ccc(C(F)(C(F)(F)F)C(F)(F)F)cc1C [1-178] | A (Mortality 100%) | A (Mortality 100%) | A (Mortality 100%)
CCNS(=O)(=O)CC(C)NC(=O)c1c(Br)cccc1C(=O)Nc1ccc(C(F)(C(F)(F)F)C(F)(F)F)cc1C (stereo not drawn) [1-212] | A (Mortality 100%) | A (Mortality 100%) | A (Mortality 100%)
Cc1cc(C(F)(C(F)(F)F)C(F)(F)F)ccc1NC(=O)c1cccc(I)c1C(=O)NC(C)(C)CS(=O)(=O)NCCSc1ccccc1 [1-87] | A (Mortality 100%) | A (Mortality 100%) | A (Mortality 100%)
Cc1cc(C(F)(C(F)(F)F)C(F)(F)F)ccc1NC(=O)c1cccc(I)c1C(=O)NC(C)(C)CS(=O)(=O)NCc1ccccc1 [1-184] | A (Mortality 100%) | A (Mortality 100%) | A (Mortality 100%)
Cc1cc(C(F)(C(F)(F)F)C(F)(F)F)ccc1NC(=O)c1cccc(I)c1C(=O)NC(C)CS(=O)(=O)NCCCl (stereo not drawn) [1-71] | A (Mortality 100%) | A (Mortality 100%) | A (Mortality 100%)
Cc1cc(C(F)(C(F)(F)F)C(F)(F)F)ccc1NC(=O)c1cccc(I)c1C(=O)NC(C)CS(=O)(=O)Nc1ccccc1F (stereo not drawn) [1-107] | C (Mortality 89–80%) | A (Mortality 100%) | A (Mortality 100%)
Cc1cc(C(F)(C(F)(F)F)C(F)(F)F)ccc1NC(=O)c1cccc(I)c1C(=O)NC(C)CS(=O)(=O)NCc1ccncc1 (stereo not drawn) [1-41] | A (Mortality 100%) | A (Mortality 100%) | A (Mortality 100%)
CCN(CC)S(=O)(=O)CC(C)(C)NC(=O)c1c(I)cccc1C(=O)Nc1ccc(OC(F)(F)F)cc1Cl [1-286] | A (Mortality 100%) | E (Mortality less than 50%) | A (Mortality 100%)
Cc1cc(C(F)(C(F)(F)F)C(F)(F)F)ccc1NC(=O)c1cccc(I)c1C(=O)NC(C)CS(=O)(=O)NC(C)C[S+](C)[O-] (stereo not drawn) [1-92] | A (Mortality 100%) | A (Mortality 100%) | A (Mortality 100%)
CCN(CC)S(=O)(=O)CC(C)(C)NC(=O)c1c(I)cccc1C(=O)Nc1ccc(C(C(F)(F)F)C(F)(F)F)cc1C [1-344] | A (Mortality 100%) | A (Mortality 100%) | A (Mortality 100%)
Cc1cc(C(F)(C(F)(F)F)C(F)(F)F)ccc1NC(=O)c1cccc(I)c1C(=O)NC(C)CS(=O)(=O)Nc1cccc(F)c1 (stereo not drawn) [1-109] | E (Mortality less than 50%) | A (Mortality 100%) | A (Mortality 100%)
CCN(CC)S(=O)(=O)CC(C)NC(=O)c1c(I)cccc1C(=O)Nc1ccc(OC(F)(F)F)cc1C (stereo not drawn) [1-276] | E (Mortality less than 50%) | E (Mortality less than 50%) | A (Mortality 100%)
CCCNS(=O)(=O)CC(C)NC(=O)c1c(I)cccc1C(=O)Nc1ccc(C(F)(C(F)(F)F)C(F)(F)F)cc1C (stereo not drawn) [1-7] | A (Mortality 100%) | A (Mortality 100%) | A (Mortality 100%)
CCN(CC)S(=O)(=O)CC(C)NC(=O)c1c(I)cccc1C(=O)Nc1ccc(C(F)(C(F)(F)F)C(F)(F)F)cc1C (stereo not drawn) [1-144] | A (Mortality 100%) | A (Mortality 100%) | A (Mortality 100%)
Cc1cc(C(F)(C(F)(F)F)C(F)(F)F)ccc1NC(=O)c1cccc(I)c1C(=O)NC(C)CS(=O)(=O)N(C)C (stereo not drawn) [1-3] | A (Mortality 100%) | A (Mortality 100%) | A (Mortality 100%)
Cc1cc(C(F)(F)C(F)(F)F)ccc1NC(=O)c1cccc(I)c1C(=O)NC(C)(C)CS(=O)(=O)NCc1ccccc1 [1-303] | A (Mortality 100%) | A (Mortality 100%) | A (Mortality 100%)
Cc1cc(C(F)(C(F)(F)F)C(F)(F)F)ccc1NC(=O)c1cccc(I)c1C(=O)NC(C)(C)CS(=O)(=O)N(C)C [1-177] | A (Mortality 100%) | A (Mortality 100%) | A (Mortality 100%)
CCCNS(=O)(=O)CC(C)NC(=O)c1c(Br)cccc1C(=O)Nc1ccc(C(F)(C(F)(F)F)C(F)(F)F)cc1C (stereo not drawn) [1-215] | A (Mortality 100%) | A (Mortality 100%) | A (Mortality 100%)
Cc1cc(C(F)(C(F)(F)F)C(F)(F)F)ccc1NC(=O)c1cccc(I)c1C(=O)NC(C)CS(=O)(=O)NCc1cccnc1 (stereo not drawn) [1-40] | A (Mortality 100%) | A (Mortality 100%) | A (Mortality 100%)
C=CCNS(=O)(=O)CC(C)NC(=O)c1c(I)cccc1C(=O)Nc1ccc(C(F)(C(F)(F)F)C(F)(F)F)cc1C (stereo not drawn) [1-20] | A (Mortality 100%) | A (Mortality 100%) | A (Mortality 100%)
Cc1cc(C(F)(C(F)(F)F)C(F)(F)F)ccc1NC(=O)c1cccc(I)c1C(=O)NC(C)CS(=O)(=O)NCc1ccccc1Cl (stereo not drawn) [1-24] | A (Mortality 100%) | A (Mortality 100%) | A (Mortality 100%)
CC[S+]([O-])CCNS(=O)(=O)CC(C)(C)NC(=O)c1c(I)cccc1C(=O)Nc1ccc(C(F)(F)C(F)(F)F)cc1C (stereo not drawn) [1-308] | A (Mortality 100%) | A (Mortality 100%) | A (Mortality 100%)
CCS(=O)(=O)CCNS(=O)(=O)CC(C)(C)NC(=O)c1c(I)cccc1C(=O)Nc1ccc(C(F)(F)C(F)(F)F)cc1C [1-309] | A (Mortality 100%) | A (Mortality 100%) | A (Mortality 100%)
Cc1cc(C(F)(C(F)(F)F)C(F)(F)F)ccc1NC(=O)c1cccc(I)c1C(=O)NC(C)(C)CS(=O)(=O)N1CC[S+]([O-])CC1C (stereo not drawn) [1-62] | A (Mortality 100%) | A (Mortality 100%) | A (Mortality 100%)
Cc1cc(C(F)(C(F)(F)F)C(F)(F)F)ccc1NC(=O)c1cccc(I)c1C(=O)NC(C)(C)CS(=O)(=O)N1CCS(=O)(=O)CC1 [1-60] | A (Mortality 100%) | E (Mortality less than 50%) | A (Mortality 100%)
